What was measured:
Experiment in all cases: relative viability (nuclei count vs DMSO), 5 days (fraction); higher = more cells survive
Kobe2602 + Bortezomib = compound: C1=CC(=CC=C1NC(=S)NNC2=C(C=C(C=C2[N+](=O)[O-])C(F)(F)F)[N+](=O)[O-])F [Kobe2602] + CC(C)C[C@H](NC(=O)[C@H](Cc1ccccc1)NC(=O)c1cnccn1)B(O)O [Bortezomib] (partner 0.002 µM)
Procedure, shortened: (§1)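 Lung cancer cell lines, seeded in 1536-well plates, were treated the following day by pin tool with a single drug or with five library-drug doses (not always all listed) in √10 steps on top of a fixed anchor-drug dose. Cells were fixed and nuclei stained in one step after 5 days, and nuclei were counted. Relative viability is the nuclei count for treated wells divided by that for vehicle wells, reported as medians of duplicate plates.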

[1] = compound: COc1cc2nccc(Oc3ccc(NC(=O)C4(C(=O)Nc5ccc(F)cc5)CC4)cc3)c2cc1OC [Cabozantinib] + CC(C)C[C@H](NC(=O)[C@H](Cc1ccccc1)NC(=O)c1cnccn1)B(O)O [Bortezomib] (partner 0.002 µM)
Procedure, shortened: as §1

[2] = compound: COc1cc2nccc(Oc3ccc(NC(=O)C4(C(=O)Nc5ccc(F)cc5)CC4)cc3)c2cc1OC [Cabozantinib] + C[C@@H](Oc1cc(-c2cnn(C3CCNCC3)c2)cnc1N)c1c(Cl)ccc(F)c1Cl [Crizotinib] (partner 1 µM)
Procedure, shortened: as §1

Cabozantinib + Dasatinib = compound: COc1cc2nccc(Oc3ccc(NC(=O)C4(C(=O)Nc5ccc(F)cc5)CC4)cc3)c2cc1OC [Cabozantinib] + Cc1nc(Nc2ncc(C(=O)Nc3c(C)cccc3Cl)s2)cc(N2CCN(CCO)CC2)n1 [Dasatinib] (partner 0.075 µM)
Procedure, shortened: as §1

Cell Line	relative viability (Kobe2602 + Bortezomib; first compound 0.2 µM)	relative viability (Kobe2602 + Bortezomib; first compound 0.6325 µM)	relative viability (Kobe2602 + Bortezomib; first compound 2 µM)	relative viability (Kobe2602 + Bortezomib; first compound 6.325 µM)	relative viability (Kobe2602 + Bortezomib; first compound 20 µM)	relative viability ([1]; first compound 0.02 µM)	relative viability ([1]; first compound 0.06325 µM)	relative viability ([1]; first compound 0.6325 µM)	relative viability ([1]; first compound 2 µM)	relative viability ([2]; first compound 0.02 µM)	relative viability ([2]; first compound 0.06325 µM)	relative viability ([2]; first compound 0.6325 µM)	relative viability ([2]; first compound 2 µM)	relative viability (Cabozantinib + Dasatinib; first compound 0.02 µM)	relative viability (Cabozantinib + Dasatinib; first compound 0.06325 µM)	relative viability (Cabozantinib + Dasatinib; first compound 0.6325 µM)	relative viability (Cabozantinib + Dasatinib; first compound 2 µM)	relative viability ([1]; first compound 0.2 µM)	relative viability ([2]; first compound 0.2 µM)	relative viability (Cabozantinib + Dasatinib; first compound 0.2 µM)
PC-3 [JPC-3]	0.905	0.812	0.766	0.871	0.795	0.802	0.992	0.863	0.867	1.07	1.1	0.919	0.967	0.89	1.21	1.1	0.993	–	–	–
HARA	1.17	1.1	0.994	1.14	1.12	1.18	1.19	1.18	1.11	1.22	1.17	0.957	1.09	0.251	0.312	0.296	0.233	0.975	1.09	0.221
NCI-H2347	1.16	1.01	0.879	0.827	1.44	0.875	1.34	0.963	0.666	0.761	0.771	0.786	0.584	0.3	0.283	–	0.296	0.944	0.46	0.321
LOU-NH91	0.518	0.454	0.469	0.478	0.527	0.484	0.55	0.508	0.551	0.736	0.751	0.728	0.725	0.432	0.579	0.578	0.547	0.457	0.531	–
LC-2-ad	0.946	1	0.941	1.02	0.993	1.06	1.17	0.865	0.821	0.438	0.606	0.474	0.467	–	0.641	0.295	0.283	0.863	0.493	0.492
LCLC-97TM1	0.691	0.757	0.501	0.611	0.526	–	1.02	0.967	0.96	–	0.354	0.365	0.306	0.723	0.854	0.848	0.717	0.653	0.49	0.757
EKVX	1.13	1.08	0.994	1.02	1.1	0.996	1.19	1.1	1	1.25	1.07	0.907	1.03	0.53	0.592	0.488	0.461	0.942	0.856	–
NCI-H441	0.549	0.582	0.527	0.575	0.687	–	0.494	0.76	0.385	0.684	0.799	0.717	0.668	0.431	0.704	0.582	0.51	0.776	0.857	0.458
HCC-827	1.09	1.15	0.965	1.01	1.08	0.981	1.1	1.11	1.06	0.888	0.942	0.939	0.978	0.327	0.31	0.262	0.242	–	–	–
NCI-H838	0.748	0.924	0.99	0.749	0.725	0.746	0.95	0.685	1.04	1.03	0.925	0.787	0.799	0.251	0.309	0.338	0.281	0.941	0.834	0.312
CAL-12T	0.997	1.17	0.921	0.931	0.93	0.876	1.25	–	1.06	0.724	0.753	0.611	0.429	0.324	0.341	0.327	0.221	0.882	0.634	0.354
NCI-H2342	–	–	–	–	–	–	–	–	–	–	–	–	–	0.291	0.386	0.316	0.311	–	–	0.308
SW 900	–	–	–	–	–	–	–	–	–	–	–	–	–	0.541	0.373	0.404	0.23	–	–	0.541
IA-LM	–	0.873	0.707	0.765	0.759	0.912	0.782	0.998	0.958	0.962	0.795	0.755	0.92	–	–	–	–	0.78	0.908	–
EPLC-272H	1.03	1.01	0.778	0.866	0.873	0.98	0.937	1.04	1.04	0.893	0.946	0.835	0.771	0.245	0.403	0.26	0.285	0.756	0.783	0.26
A-427	0.998	0.991	0.982	0.779	1.07	1.03	0.969	0.936	0.988	0.836	0.968	0.789	0.858	0.81	0.705	0.706	0.795	1.05	0.887	0.695
NCI-H727	0.901	0.883	0.83	0.885	0.851	0.704	0.901	0.819	0.947	0.934	0.866	1.03	0.896	0.298	0.455	0.348	0.298	0.718	0.786	0.284
NCI-H1993	0.978	1.09	0.897	0.985	1.02	0.829	1.2	0.816	0.988	0.798	1.04	0.856	0.884	0.513	0.488	0.498	0.523	0.716	0.682	0.49
LK-2	–	–	–	–	–	–	–	–	–	–	0.225	0.179	0.204	–	0.247	0.341	0.46	–	0.201	–
SW 1573	1.21	0.967	1.06	0.945	1.18	1.23	1.05	0.951	0.875	0.927	0.873	0.822	0.671	0.438	0.738	0.624	0.456	1.09	0.948	0.453
NCI-H1915	1.01	0.998	0.958	0.99	0.931	1.01	1.02	1.01	0.979	0.923	0.904	0.896	0.996	0.32	0.316	0.352	0.322	0.971	0.888	0.294

Cell Line	relative viability (Kobe2602 + Bortezomib; first compound 0.2 µM)	relative viability (Kobe2602 + Bortezomib; first compound 0.6325 µM)	relative viability (Kobe2602 + Bortezomib; first compound 2 µM)	relative viability (Kobe2602 + Bortezomib; first compound 6.325 µM)	relative viability (Kobe2602 + Bortezomib; first compound 20 µM)	relative viability ([1]; first compound 0.02 µM)	relative viability ([1]; first compound 0.06325 µM)	relative viability ([1]; first compound 0.6325 µM)	relative viability ([1]; first compound 2 µM)	relative viability ([2]; first compound 0.02 µM)	relative viability ([2]; first compound 0.06325 µM)	relative viability ([2]; first compound 0.6325 µM)	relative viability ([2]; first compound 2 µM)	relative viability (Cabozantinib + Dasatinib; first compound 0.02 µM)	relative viability (Cabozantinib + Dasatinib; first compound 0.06325 µM)	relative viability (Cabozantinib + Dasatinib; first compound 0.6325 µM)	relative viability (Cabozantinib + Dasatinib; first compound 2 µM)	relative viability ([1]; first compound 0.2 µM)	relative viability ([2]; first compound 0.2 µM)	relative viability (Cabozantinib + Dasatinib; first compound 0.2 µM)
NCI-H661	0.936	0.83	0.78	0.796	0.755	0.799	0.855	0.683	0.799	–	0.991	0.918	1.03	0.732	0.838	0.767	0.772	0.915	1.13	0.724
NCI-H520	0.612	0.713	0.511	0.593	0.537	0.878	0.73	0.483	0.515	1.03	0.843	0.644	0.596	0.18	0.204	0.201	0.199	0.703	0.758	0.215
COR-L 105	0.688	1.14	0.739	0.692	0.746	0.799	0.999	0.702	0.837	0.653	1.03	0.659	0.561	0.352	0.283	0.314	0.314	–	–	–
NCI-H2009	0.961	1.11	0.97	1.04	0.949	1.06	1.15	1.16	0.998	1.11	1.09	1.09	1.04	0.289	0.298	0.217	0.201	1.07	1.15	0.267
NCI-H1563	0.954	1.13	0.71	0.933	0.794	0.92	0.875	0.824	1.08	0.948	1.03	0.77	0.802	0.386	0.424	0.498	0.452	0.904	0.904	0.43
RERF-LC-KJ	1.11	1.15	1.15	1.15	1.15	1.11	1.04	1.05	1.06	0.868	0.895	0.802	0.855	0.84	0.77	0.853	0.923	1.26	0.917	0.763
NCI-H1703	0.371	0.379	0.286	0.367	0.342	0.243	0.237	0.194	0.154	–	0.296	0.249	0.175	–	–	–	–	0.235	0.172	–
NCI-H358	–	–	–	–	–	–	–	–	–	0.717	0.708	0.401	0.382	0.15	0.194	0.197	0.19	–	0.576	0.12
NCI-H2085	1.07	1.08	0.99	1.07	1.11	1.22	1.14	1.01	1.03	0.949	0.921	0.898	0.799	0.285	0.268	0.218	0.216	1.08	0.992	0.244
EBC-1	0.528	0.479	0.539	0.511	0.612	0.673	0.484	0.245	0.173	0.194	0.173	0.198	0.213	–	–	–	–	0.221	0.182	–
NCI-H1944	–	–	–	–	–	–	–	–	–	–	1.26	1.07	1.21	0.183	0.233	0.221	0.216	–	1.1	0.206
A549	–	–	–	–	–	–	–	–	–	0.812	0.853	0.79	0.729	–	–	–	–	–	0.787	–
NCI-H1299	1.01	0.982	0.986	1.07	0.995	1.01	1.03	1.01	1.05	0.977	0.998	0.973	0.993	–	–	–	–	1.03	0.648	–
NCI-H2170	–	–	–	–	–	–	–	–	–	1.33	1.4	1.15	1.19	0.622	0.57	0.542	0.591	–	1.27	0.373
NCI-H1623	–	–	–	–	–	–	–	–	–	–	–	–	–	0.483	0.606	0.486	0.568	–	–	0.486
SK-MES-1	–	–	–	–	–	–	–	–	–	1.13	1.14	1.03	0.825	0.335	0.518	0.432	0.242	–	1.02	0.293
NCI-H1793	–	–	–	–	–	–	–	–	–	–	–	–	–	0.436	0.519	0.336	0.378	–	–	0.343
HCC-44	0.882	0.897	0.826	0.905	0.813	1.01	0.968	0.946	0.943	0.855	0.85	0.834	0.85	–	–	–	–	0.877	0.841	–
NCI-H522	–	–	–	–	–	–	–	–	–	–	–	–	–	0.726	0.898	0.846	1.04	–	–	0.93
Calu-6	1.11	1.04	0.945	0.971	0.951	1.09	1.05	1.04	0.949	0.788	0.925	0.75	0.773	–	–	–	–	1.04	0.742	–
NCI-H1395	–	–	–	–	–	–	–	–	–	–	–	–	–	0.363	0.473	0.458	0.37	–	–	0.423
